Test results: patent US20250319213A1, “FUNCTIONALIZED BISAMINOTHIOL DERIVATIVES, COMPLEXES WITH THESE BISAMINOTHIOL DERIVATIVES AND USE OF SAID COMPLEXES AS DIAGNOSTICS AND THERAPEUTICS” (ABX ADVANCED BIOCHEMICAL COMPOUNDS – BIOMEDIZINISCHE …, priority 2022, published 2025)

Key:
[1] = Determination of log D values (shake-flask, octanol/medium); format: physicochemical
Protocol: Log D values were determined for different media by the shake-flask method (Andrés, A.; Rosés, M.; Ràfols, C.; Bosch, E.; Espinosa, S.; Segarra, V.; Huerta, J. M. Setup and validation of shake-flask procedures for the determination of partition coefficients (log D) from low drug amounts. Eur. J. Pharm. Sci. 2015, 76, 181-191.). In preparation, octanol was saturated with each of the used buffer solutions and vice versa. To 3 mL of octanol, together with 3 mL of buffer solution 200-300 μL of the ^99mTc-labeled radioligand (15-25 MBq, samples in triplicate) were added and shaken vigorously for 30 min. After centrifugation at 9,000 rpm for 15 min, samples were taken from both separated phases and measured by gamma-counter. Log D values were calculated as the ratio of radioactivity determined in octanol and aqueous phase.

[2] = Product stability in DPBS at 25° C.; format: physicochemical; settings: DPBS (+Ca2+, +Mg2+), mean ± SD; for Fraction of radioligand in DPBS at 25° C., 1 h / Fraction of radioligand in DPBS at 25° C., 2 h / Fraction of radioligand in DPBS at 25° C., 4 h / Fraction of radioligand in DPBS at 25° C., 20 h: normalized to fraction immediately after preparation
Protocol: (§1) In brief, the freshly produced ^99mTc-labeled radioligand solution (10-20 MBq, 20-100 μL) was added to the respective medium (200-400 μL), vortexed quickly, and shook gently at the respective temperature mentioned below. At certain time points, samples were taken, diluted, and measured by radio-RP-HPLC. Hereby, investigation of plasma samples included protein precipitation with the 4-fold volume of an ice-cold mixture of methanol/water (4/1, v/v), intensive shaking (5 min) and centrifugation (14,000 rpm, 10 min), before inspection of the supernatant. In addition, the recovery of extracted activity was calculated after activity measurement of supernatant and residue by a gamma counter.

[3] = Product stability in mouse plasma (in vitro); format: in vitro ADME; settings: mean ± SD (n = 3-4), normalized to fraction immediately after preparation
Protocol: as §1

LNCaP cells = experiment: Determination of the internalization (surface binding and internalized activity); format: cell-based, human; settings: 1 h; for Internalization, 4° C. (% AD/mg Protein) / Internalization, 37° C. (% AD/mg Protein): cytosolic activity; for Internalization, 4° C. (% AD/mg Protein) / Internalization, 37° C. (% AD/mg Protein) / Binding, 4° C. (% AD/mg Protein) / Binding, 37° C. (% AD/mg Protein): 25 nM radioligand, mean ± SEM; for Binding, 4° C. (% AD/mg Protein) / Binding, 37° C. (% AD/mg Protein): surface-bound activity
Protocol: (§2) Competition, saturation and internalization assays were assessed using the high PSMA expressing human prostate carcinoma cell line LNCaP (ATCC® CRL-1740). The cells were grown as monolayer at 37° C. in a humidified atmosphere comprising 5% CO2 and 95% air in RPMI medium including 10% FCS (Merck KGAA, Germany). After washing the confluent cells twice with phosphate buffered saline (PBS) and detaching them with trypsin/EDTA (0.05%/0.02%), the cells were suspended in medium and counted (Casy TT, Omni Life Science, Germany).
For internalization LNCaP and PC3 cells were seeded, 1×10^5 cells/well in 24-well plates two days before the assay. On the day of internalization, after aspirating the medium, 100 μL of PBS and, for non-specific binding samples, 100 μL 2-PMPA (100 μM) were pipetted into the wells, followed by 400 μL medium including activity. The concentration of the ^99mTc-labeled radioligands was 25 nM. After 1 h of incubation at 37° C. and adjacent well plates at 4° C., the supernatant was removed and the cells washed with cold PBS. Surface-bound activity was stripped with 4° C. cold acid-wash buffer (0.2 M glycine, pH 2.8) for 5 min. The acid wash buffer was transferred from the plate wells to measuring tubes, as was the PBS buffer after washing once (binding on the surface). Cytosolic activity was determined after treatment with cell lysis buffer (0.1 M NaOH/1% SDS). Cell surface and cytosolic activity were measured separately in a gamma counter. Determination of protein content from cell lysate was performed using a spectrophotometer (NanoDrop, Thermo Fisher Scientific, USA) at an absorbance of 280 nm.

PSMA = molecular target: T1, PSMA (Homo sapiens, UniProt Q04609); experiment: Direct binding affinity on LNCaP cells (saturation); settings: [99mTc]TcO complex of the listed compound, saturation 0.3-40 nM, 1 h 37° C., mean ± SEM, read-out: Kd [nM] of [99mTc]TcO-complexes
T1 construct: host or cells: LNCaP human prostate carcinoma cells
Protocol: as §2
For saturation monolayer of LNCaP cells were seeded, 5×10^4 cells/well in 48-well plates two days before the assay. On the day of saturation, after aspirating the medium, 160 μL of medium (for ^99mTc-labeled radioligand with D-mannitol (1 mg/mL)) were pipetted per well, for non-specific binding samples including 100 μM 2-PMPA. After preincubation for 5 min, 40 μL activity ([^68Ga]Ga-PSMA-11 or ^99mTc-labeled radioligand solution) were added (total volume/well: 200 μL). Eight concentrations ranged between 0.3 and 40 nM.
After 1 hour of incubation at 37° C. both for competition and saturation samples, the supernatants were aspirated and the cells washed twice with cold PBS. The cell lawn was lysed with 500 μL NaOH/SDS (0.1 M/1%) by shaking for 3 to 5 minutes. After transferring the lysates into measuring tubes, the activity of the samples was measured in a gamma counter (2480 Automatic Gamma Counter Wizard 2, Perkin Elmer, USA).
The half maximal inhibitory concentrations (IC50) and the dissociations constants (Kd) were calculated by fitting the data using a nonlinear curve-fitting program (GraphPad Prism 9). With the Kd value of [^68Ga]Ga-PSMA-11 on LNCaP and the known concentration of [^68Ga]Ga-PSMA-11 in the competition assay the inhibition constants (Ki) was also determined with the curve-fitting program.

[4] = Product stability at room temperature (without addition of any media); format: physicochemical; settings: no media, radio-RP-HPLC
Protocol: as §1

[5] = system: subcutaneous LNCaP tumor xenografts; experiment: SPECT/CT and PET/CT imaging in LNCaP tumor bearing mice; format: in vivo; settings: LNCaP tumor bearing mice after 1 h and 4 h (FIG. 5)
Protocol: A prostate cancer xenograft model was generated via subcutaneous injection of human LNCaP cells into the right shoulder of 8-12 week-old male nude mice (Rj:NMRI-Foxn1^nu/nu, Janvier Labs, Le Genest-Saint-Isle, France). Imaging studies were performed when tumors reached a diameter of >6 mm. General anesthesia was induced and maintained with inhalation of 10% (v/v) desflurane in […] oxygen/air. During anesthesia, animals were continuously warmed at 37° C.
Small animal single-photon emission computed tomography (SPECT) was performed using the nanoSPECT/CT scanner (Mediso Medical Imaging Systems) equipped with an APT63 aperture consisting of four M3 multi-pinhole collimators. Each animal received 30 MBq of ^99mTc-labeled compounds delivered in 0.2 mL of Dulbecco's phosphate-buffered saline as a single intravenous injection through a tail vein catheter. Photon emission was recorded using frame times of 60 s (1 h scan: 40-70 min), 90 s (4 h scan, 3.5-4.5 h), and 320 s (20 h scan, 18.5-21.5 h), and binned simultaneously within the 20% energy window of the 140.5 keV photopeak. With each SPECT scan, a corresponding CT image was recorded and used for anatomical referencing and attenuation correction. SPECT images were reconstructed using the Tera-Tomo™ three-dimensional (3D) algorithm at normal range with a voxel size of 0.4 mm and applying corrections for scatter attenuation, and decay.
Small animal positron emission tomography (PET) was performed using the nanoPET/CT scanner (Mediso Medical Imaging Systems). Each animal received 10 MBq of the radiolabeled reference compound [^68Ga]Ga-PSMA-11 delivered in Dulbecco's phosphate-buffered saline as a single intravenous injection through a tail vein catheter. Emission of the 511 keV annihilation photons was recorded continuously at a coincidence mode of 1:5 for 60 min following radiotracer injection. With each PET scan, a corresponding CT image was recorded and used for anatomical referencing and attenuation correction. Three-dimensional list mode data were binned using the 400-600 keV energy window. PET images of the 40-60 min time frame were reconstructed using the Tera-Tomo™ three-dimensional (3D) algorithm with a voxel size of 0.4 mm and applying corrections for random events, scatter, attenuation, and decay.
Three-dimensional VOIs were created applying fixed threshold for delineation of tumor (30%), muscle (0%); and kidneys (39%). Standardized uptake values (SUV=[MBq detected activity/mL tissue]/[MBq injected activity/g body weight], mL/g) were determined and reported as max SUV (VOI-maximum). Time-activity curves were generated and further analyzed using Prism (GraphPad Software, San Diego CA, USA).

T1 sequence (Q04609 whole entry): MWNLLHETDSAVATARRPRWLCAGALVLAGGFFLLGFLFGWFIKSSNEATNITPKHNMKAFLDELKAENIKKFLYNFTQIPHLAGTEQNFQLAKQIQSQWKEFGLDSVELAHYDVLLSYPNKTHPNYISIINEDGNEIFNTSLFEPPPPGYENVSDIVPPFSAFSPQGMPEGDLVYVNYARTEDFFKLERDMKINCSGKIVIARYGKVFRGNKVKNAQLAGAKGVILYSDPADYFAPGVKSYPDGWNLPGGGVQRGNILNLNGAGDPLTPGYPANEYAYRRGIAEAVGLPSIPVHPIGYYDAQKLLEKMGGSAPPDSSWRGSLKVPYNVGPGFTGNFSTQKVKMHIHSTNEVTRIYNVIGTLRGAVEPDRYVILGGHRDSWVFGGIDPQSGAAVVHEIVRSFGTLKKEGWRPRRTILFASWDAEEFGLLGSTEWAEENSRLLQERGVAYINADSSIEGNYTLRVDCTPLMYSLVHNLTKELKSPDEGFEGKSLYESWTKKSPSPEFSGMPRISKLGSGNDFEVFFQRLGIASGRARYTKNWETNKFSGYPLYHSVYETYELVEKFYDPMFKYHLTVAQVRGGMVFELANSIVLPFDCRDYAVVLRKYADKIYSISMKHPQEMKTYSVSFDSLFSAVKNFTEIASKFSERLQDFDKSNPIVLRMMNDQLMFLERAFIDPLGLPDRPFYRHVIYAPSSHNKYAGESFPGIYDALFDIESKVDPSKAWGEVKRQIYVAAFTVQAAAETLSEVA

Structure (SMILES) | Fraction of radioligand in DPBS at 25° C., 1 h [2] | Fraction of radioligand in DPBS at 25° C., 2 h [2] | Fraction of radioligand in DPBS at 25° C., 20 h [2] | % Internalization, 37° C. (LNCaP cells) | Internalization, 4° C. (% AD/mg Protein) (LNCaP cells) | Internalization, 37° C. (% AD/mg Protein) (LNCaP cells) | Binding, 4° C. (% AD/mg Protein) (LNCaP cells) | Binding, 37° C. (% AD/mg Protein) (LNCaP cells) | Kd (PSMA) | other results
CC1(C)CN(CCCCC(=O)N[C@@H](Cc2ccccc2)C(=O)N[C@@H](Cc2ccccc2)C(=O)N[C@H](CCCCNC(=O)CCCCCCC(=O)NCCCC[C@H](NC(=O)N[C@@H](CCC(=O)O)C(=O)O)C(=O)O)C(=O)O)CC[N]2CC(C)(C)[S][99Tc]2(=[O])[S]1 (stereo partly shown) [[^99mTc]TcO-2] | 89.9 ± 2.3% | 97.7 ± 2.3% | 89.2 ± 2.7% | – | – | – | – | – | – | LogD (shake-flask, octanol/medium) Na-phosphate pH 7.4 ([1]; 4.4 mM Na2HPO4, 2.2 mM NaH2PO4, pH 7.4): −2.08 ± 0.01; LogD (shake-flask, octanol/medium) PBS 0.1M pH 7.4 ([1]; PBS 0.1M pH 7.4): −2.16 ± 0.03; LogD (shake-flask, octanol/medium) TRIS buffer 0.1M pH 7.4 ([1]; TRIS buffer 0.1M pH 7.4): −2.16 ± 0.02; Fraction of radioligand in DPBS at 25° C., 4 h [2]: 80.7 ± 12.0%; Fraction of radioligand after 6 h in mouse plasma at 37° C. [3]: 98.3 ± 1.1%
O=C([O-])CN(CCN(CC(=O)[O-])Cc1cc(CCC(=O)NCCCCCC(=O)NCCCC[C@H](NC(=O)N[C@@H](CCC(=O)O)C(=O)O)C(=O)O)ccc1[O-])Cc1cc(CCC(=O)O)ccc1[O-].[68Ga+3].[OH3+] [^68Ga-PSMA11, reference compound] | – | – | – | 40.3% | 0.1 ± 0.0 % AD/mg Protein | 0.5 ± 0.2 % AD/mg Protein | 0.3 ± 0.4 % AD/mg Protein | 0.8 ± 0.2 % AD/mg Protein | – | –
CC1(C)CN(CCCCC(=O)N[C@H](Cc2ccc(O)c(I)c2)C(=O)N[C@H](Cc2ccccc2)C(=O)N[C@H](CCCCNC(=O)CCCCCCC(=O)NCCCC[C@H](NC(=O)N[C@@H](CCC(=O)O)C(=O)O)C(=O)O)C(=O)O)CC[N]2CC(C)(C)[S][99Tc]2(=[O])[S]1 (stereo partly shown) [[^99mTc]TcO-4] | 88.4 ± 14.8% | 100 ± 1.8% | 98.0 ± 1.0% | 39.2% | 0.2 ± 0.0 % AD/mg Protein | 1.9 ± 0.9 % AD/mg Protein | 2.2 ± 0.1 % AD/mg Protein | 2.9 ± 0.5 % AD/mg Protein | – | Fraction of radioligand in DPBS at 25° C., 4 h [2]: 105.5%
CC(C)(S)CNCCN(CCCCC(=O)N[C@H](Cc1ccc(O)c(I)c1)C(=O)N[C@H](Cc1ccccc1)C(=O)N[C@H](CCCCNC(=O)CCCCCCC(=O)NCCCC[C@H](NC(=O)N[C@@H](CCC(=O)O)C(=O)O)C(=O)O)C(=O)O)CC(C)(C)S [Compound 4] | – | – | – | – | – | – | – | – | 4.7 ± 3.2 nM | –
O=C(O)CC[C@H](NC(=O)N[C@@H](CCCCNC(=O)CCCCCCC(=O)NCCCC[C@@H](NC(=O)[C@H](CCC(=O)O)NC(=O)[C@H](CCC(=O)O)NC(=O)CCC(=O)NCCCN1CC[S][99Tc]2(=[O])[S]CC[N]2CC1)C(=O)O)C(=O)O)C(=O)O (stereo partly shown) [[^99mTc]TcO-6] | 75.9 ± 0.2% | 74.4 ± 0.1% | 18.7% | 38.5% | 0.2 ± 0.0 % AD/mg Protein | 2.9 ± 0.2 % AD/mg Protein | 2.5 ± 0.4 % AD/mg Protein | 4.7 ± 0.2 % AD/mg Protein | – | Fraction of radioligand at indicated time point after preparation, 0 h ([4]; 0 h): 89%; Fraction of radioligand at indicated time point after preparation, 2 h ([4]; 2 h): 87%; Fraction of radioligand at indicated time point after preparation, 4 h ([4]; 4 h): 88%; Fraction of radioligand at indicated time point after preparation, 6 h ([4]; 6 h): 85%; Fraction of radioligand in DPBS at 25° C., after 6 h instead of 4 h ([2]; 6 h (footnote &), normalized): 72.3 ± 0.9%^&; tumor-to-liver ratios among the [99mTc]-labeled radioligands [5]: a marked or a significant increase; tumor-to-muscle ratios among the [99mTc]-labeled radioligands [5]: a marked or a significant increase
CC(C)(S)CNCCN(CCCCC(=O)N[C@@H](Cc1ccccc1)C(=O)N[C@@H](Cc1ccccc1)C(=O)N[C@H](CCCCNC(=O)CCCCCCC(=O)NCCCC[C@H](NC(=O)N[C@@H](CCC(=O)O)C(=O)O)C(=O)O)C(=O)O)CC(C)(C)S [Compound 2] | – | – | – | – | – | – | – | – | 32.1 ± 24.3 nM | –
O=C(O)CC[C@H](NC(=O)N[C@@H](CCCCNC(=O)CCCCCCC(=O)NCCCC[C@@H](NC(=O)[C@H](CCC(=O)O)NC(=O)[C@H](CCC(=O)O)NC(=O)CCC(=O)NCCCN(CCS)CCNCCS)C(=O)O)C(=O)O)C(=O)O [Compound 6] | – | – | – | – | – | – | – | – | 7.3 nM | –
